Results on one compound are retold here after patent publication US20260256728A1, “TREATMENT FOR ASYMPTOMATIC STARGARDT DISEASE PATIENTS” (priority 2024, published 2026).

Format in all cases: in vivo, human
Data set [1] can be described thus: TEASE-1 plasma gildeuretinol (replacement of plasma vitamin A). The note with it: for percentage of gildeuretinol over total vitamin A (as retinol+gildeuretinol): plasma, 8-week pharmacokinetic analysis. The procedure:
The Tolerability and Effects of gildeuretinol acetate in Stargardt Disease (Clinical trial group 1, also known as TEASE-1) was a 24-month, multicenter, double-masked, placebo-controlled trial designed to evaluate the efficacy and safety of daily oral gildeuretinol acetate in slowing the growth of atrophic retinal lesions in Stargardt disease patients. The trial was conducted at multiple sites in the United States (NCT02402660).
Patients 12 years or older, clinically diagnosed with Stargardt disease, with at least one ABCA4 mutation, at least one eye presenting with well-demarcated areas of reduced fundus autofluorescence including retinal atrophic lesions, and with any visual acuity, were enrolled.
Patients were randomized to gildeuretinol acetate 14 mg capsules, gildeuretinol acetate 24 mg capsules, or placebo capsules, to be taken once daily for one year. After one year, 50% of randomly selected patients receiving placebo were crossed over in a 1:1 ratio to gildeuretinol acetate 14 mg capsules or gildeuretinol acetate 24 mg capsules for a second year.
Gildeuretinol acetate and placebo capsules were identical appearing capsules. Patients were advised to avoid vitamin A-containing supplements and liver-based products. Fruits and vegetables could be consumed without limitation. Trial visits occurred at 8 weeks and 6, 12, 18, and 24 months following screening and randomization.

The test system of data set [2] is asymptomatic Stargardt disease patients. The data set can be described thus: TEASE-3 best-corrected visual acuity (BCVA). The protocol: (§1) The tolerability and effects of ALK-001 (gildeuretinol acetate) in Stargardt Disease (Clinical trial group 3, also known as TEASE-3) study was an open-label, multicenter, case control study designed to evaluate the efficacy and safety of gildeuretinol acetate on the progression of Stargardt disease in asymptomatic individuals. The trial was conducted at multiple sites in the United States.
To assess the safety and efficacy of gildeuretinol acetate in preventing vision loss in asymptomatic individuals, gildeuretinol acetate 14 mg capsules were administered to individuals showing early signs of retinal damage while maintaining approximately 20/20 vision and no subjective loss of vision. […] Based on the above family history and clinical observations, the asymptomatic individuals were likely to develop retinal lesions, loss of photoreceptors, drops in retinal sensitivity, loss of visual acuity, indicating the onset of symptoms, i.e. a progression to the symptomatic phase, including vision loss within two years, mirroring the progression observed in their older siblings.
Testing asymptomatic individuals in the absence of a potential intervention is, therefore, controversial. All asymptomatic Stargardt disease patients were thus administered gildeuretinol acetate. Specific dose levels were not disclosed to the patients. Disease progression was compared to the symptomatic siblings with identical genetic mutations when aged-matched who had not received gildeuretinol acetate.
Patients received gildeuretinol acetate 14 mg capsules, to be taken orally once daily. Trial visits occurred every 6 months approximately following screening and treatment start visits.
Disease progression was monitored by best-corrected visual acuity (BCVA) reported in number of Early Treatment Diabetic Retinopathy Study (ETDRS) letters, fundus autofluorescence (FAF) imaging, loss of photoreceptors (as measured by the ellipsoid zone band loss) by optical coherence tomography (OCT) and retinal sensitivity by microperimetry.
Measurements from the left and right eye for each patient were averaged for each visit to produce a single statistical unit for both eyes. For segmented linear regressions, knot times were selected so that three visits were included in the first segment.

Data set [3] shares this test system. The data set can be described thus: TEASE-3 retinal sensitivity by fundus-tracking microperimetry. The procedure: FIG. 4 is a graph showing mean retinal sensitivity (dB) over time in three asymptomatic Stargardt disease patients taking gildeuretinol acetate 14 mg daily. Lines show mean retinal sensitivity of both eyes. Lines are piecewise linear regressions with a knot time of 12 months. Each symbol represents a retinal sensitivity measurement for each eye. Patient 1 retinal sensitivity was measured with a Nidek MP-1 (Nidek, Gamagori, Japan). Patients 2 and 3 retinal sensitivity was measured with the Center Vue Macular Integrity Assessment or MAIA (CenterVue, Padova, Italy).
as §1
Patients received gildeuretinol acetate 14 mg capsules, to be taken orally once daily. […]
Disease progression was monitored by best-corrected visual acuity (BCVA) reported in number of Early Treatment Diabetic Retinopathy Study (ETDRS) letters, fundus autofluorescence (FAF) imaging, loss of photoreceptors (as measured by the ellipsoid zone band loss) by optical coherence tomography (OCT) and retinal sensitivity by microperimetry. […]

Entries after “also recorded” stand apart in the source; their conditions may differ.

On to `[2H]C([2H])([2H])C(/C=C/C=C(C)/C=C/C1=C(C)CCCC1(C)C)=C\COC(C)=O` [gildeuretinol acetate], for which the “replacement of plasma vitamin A sustained throughout the treatment period” value in data set [1] (14 or 24 mg daily, 24 months) is “greater than 80%”. Moreover, the “patients in whom over 80% of plasma vitamin A was replaced” value in data set [1] (after six months) is listed as 39 out of 40. Besides, the “serum vitamin A replaced with gildeuretinol” value in data set [1] (daily doses approximately 14 to 24 mg, within a matter of weeks) is given as “more than 80%”. Moreover, the “total plasma vitamin A and retinoic acid (combined vitamin A and gildeuretinol-derived forms) versus placebo group” value in data set [1] (in vivo) is “the same”. For the same compound, the “percentage of gildeuretinol over total vitamin A (as retinol+gildeuretinol)” value in data set [1] (14 mg cohort) worked out at 87%; in data set [1] (24 mg cohort), 92%. Besides, the “effect on vision loss” value in data set [2] (asymptomatic Stargardt disease patients, 14 mg daily, up to four years) is “effectively prevented vision loss and further retinal damage; also recorded: completely prevented vision loss; also recorded: arrested loss of vision and retinal pathology”. The “average BCVA improvement versus untreated siblings, lines of vision on the ETDRS eyechart” value in data set [2] (in vivo) is reported as “four”. Also, the “visual acuity (Snellen)” value in data set [2] (treated asymptomatic patients) is ~ 20/20 and approximately 20/20. Further, the BCVA in data set [2] (treated siblings, 14 mg daily, 2-4 years) was 88±4 ETDRS letters. Further, the “average BCVA improvement versus untreated age-matched siblings” value in data set [2] (untreated siblings 66±10 ETDRS letters) was 22±13 letters. The “change of mean retinal sensitivity” value in data set [3] (first year of treatment) is −3.1±1.5 dB/year. Further, the “average rate of retinal sensitivity improvement” value in data set [3] (following years of treatment) is on record as “+0.93±0.7 dB/year”.
